Laboratory results from PubChem BioAssay (NCI).
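Growth conditions: 96-well plates. Treatment: test compound, 48 hours, 5 concentrations. Analysis: linear interpolation between bracketing concentrations; unreached endpoints set to highest concentration. TGI marks complete inhibition of growth.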

Legend:
Experiment in all cases: NCI tumour cell line growth inhibition, 48 h
NCI-H226 lung = tested on: NCI-H226 lung
DLD-1 colon = tested on: DLD-1 colon
DMS 114 small cell lung = tested on: DMS 114 small cell lung
DMS 273 small cell lung = tested on: DMS 273 small cell lung
HOP-18 NSCLC = tested on: HOP-18 NSCLC
KM20L2 colon = tested on: KM20L2 colon
LXFL 529 NSCLC = tested on: LXFL 529 NSCLC
M19-MEL melanoma = tested on: M19-MEL melanoma
RXF-631 renal = tested on: RXF-631 renal
SNB-78 CNS = tested on: SNB-78 CNS
XF 498 CNS = tested on: XF 498 CNS

With `Cc1[nH]c2ncn(/N=C/c3ccccc3)c(=N)c2c1Cc1ccccc1` the TGI (NCI-H226 lung) was > 100 µM.
Compound `CC1CCCc2c(-c3ccc(Cl)cc3)nc(N)c(C#N)c21` (stereo not drawn) has a TGI (NCI-H226 lung) of 66.2 µM.
With `CC1=NC(=Cc2ccc(Cl)cc2)C(=O)N1n1c(-c2ccccc2)nc2ccccc2c1=O` the TGI (NCI-H226 lung) was > 100 µM.
`O=c1cc(-c2ccc(O)c(O)c2)oc2cc(OC3OC(CO)C(O)C(O)C3O)cc(O)c12` (stereo not drawn) was tested, and the TGI (NCI-H226 lung) was > 100 µM.
`COc1ccc2oc(=N)c(C(N)=S)cc2c1` showed a TGI (NCI-H226 lung) of 44.3 µM.
`Nc1ncc2c(n1)-c1ccccc1OC2NC1CC1` (stereo not drawn) was tested, and the TGI (NCI-H226 lung) was > 100 µM.
`N#C/C(=C\c1ccc(Cl)cc1)c1nc2ccccc2c(=O)[nH]1` was tested, and the TGI (NCI-H226 lung) was > 100 µM.
In the case of `CC[C@@]1(O)C(=O)OCc2c1c(Cl)c1n(c2=O)Cc2cc3ccccc3nc2-1`, the TGI (DLD-1 colon) is reported as > 100 µM, the TGI (DMS 114 small cell lung) is reported as 15.9 µM and the TGI (DMS 273 small cell lung) is reported as 8.12 µM. The TGI (HOP-18 NSCLC) was > 28.5 µM, the TGI (KM20L2 colon) was > 100 µM and the TGI (LXFL 529 NSCLC) was > 100 µM. The TGI (M19-MEL melanoma) was > 30.7 µM, the TGI (NCI-H226 lung) was 31.2 µM and the TGI (RXF-631 renal) was 18.5 µM. The TGI (SNB-78 CNS) was 84 µM and the TGI (XF 498 CNS) was 15.8 µM.
Work on `CCOc1ccc(C2c3[nH]c4ccccc4c3CCN2C(=O)c2cccs2)cc1` (stereo not drawn) yielded a TGI (NCI-H226 lung) of 43.4 µM.
In the case of `CN(C)c1ccc(C(C#N)N2CCCN(C(C#N)c3ccc(N(C)C)cc3)C2c2ccc(N(C)C)cc2)cc1` (stereo not drawn), the TGI (NCI-H226 lung) is reported as > 100 µM.
In the case of `CCOP(=O)(CS(C)=O)O[C@@H]1C[C@H](C)CC[C@H]1C(C)C` (stereo partly drawn), the TGI (NCI-H226 lung) is reported as 12.2 µM.
`O=C(/C=C/c1ccc(O)c(O)c1)NC(CO)C(=O)O` (stereo not drawn) was tested, and the TGI (NCI-H226 lung) was > 100 µM.
For `CCCOc1ccc(/C=C/c2cc(OC)c(OC)c(OC)c2)cc1`, the TGI (DLD-1 colon) was 35.7 µM, the TGI (DMS 273 small cell lung) was 11.7 µM and the TGI (HOP-18 NSCLC) was > 100 µM. The TGI (KM20L2 colon) was 0.406 µM, the TGI (LXFL 529 NSCLC) was > 100 µM and the TGI (M19-MEL melanoma) was > 100 µM. For the same compound, the TGI (NCI-H226 lung) was 2.54 µM, the TGI (RXF-631 renal) was > 100 µM and the TGI (SNB-78 CNS) was > 100 µM. It also gave a TGI (XF 498 CNS) of 84.9 µM.
For `O=S(=O)(CC1=NC2C=CC=CC2N=C1)NCc1ccccc1` (stereo not drawn), the TGI (DLD-1 colon) was > 100 µM, the TGI (DMS 273 small cell lung) was > 100 µM and the TGI (HOP-18 NSCLC) was > 100 µM. The TGI (KM20L2 colon) was > 100 µM, the TGI (LXFL 529 NSCLC) was > 100 µM and the TGI (M19-MEL melanoma) was > 100 µM. For the same compound, the TGI (NCI-H226 lung) was > 100 µM and the TGI (XF 498 CNS) was > 100 µM.
In the case of `c1ccc(C2=NN(c3ccccc3)C3(S2)SC(c2ccccc2)(c2ccccc2)c2ccccc23)cc1` (stereo not drawn), the TGI (DLD-1 colon) is reported as > 100 µM, the TGI (DMS 114 small cell lung) is reported as > 100 µM and the TGI (DMS 273 small cell lung) is reported as > 100 µM. The TGI (KM20L2 colon) was > 100 µM, the TGI (LXFL 529 NSCLC) was > 100 µM and the TGI (M19-MEL melanoma) was > 100 µM. The TGI (NCI-H226 lung) was > 100 µM, the TGI (SNB-78 CNS) was > 100 µM and the TGI (XF 498 CNS) was > 100 µM.
`CSC1=N/C(=C\c2cccs2)C(=O)N1CN1CCCCC1` was tested, and the TGI (NCI-H226 lung) was > 100 µM.
For `CC(=O)OCC(OC(C)=O)C(OC(C)=O)C(/C=N/N(C(C)=O)S(=O)(=O)c1ccc(/C=C2\NC(=O)NC2=O)cc1)OC(C)=O` (stereo not drawn), the TGI (NCI-H226 lung) was > 100 µM.
For `COC(=O)n1c(=O)nc2c3c(ncn21)Oc1c(c(-c2ccccc2)nn1-c1ccccc1)C3c1ccc(Cl)cc1` (stereo not drawn), the TGI (NCI-H226 lung) was 3.42 µM.
`CCn1c(=O)c2c(=O)[nH][nH]c2c2ccccc21` was tested, and the TGI (NCI-H226 lung) was > 100 µM.
`COC(=O)c1c/c(=N\NC(=O)CC(=O)Nc2ccccc2Cl)c2ccccc2o1` was tested, and the TGI (DLD-1 colon) was > 100 µM, the TGI (DMS 114 small cell lung) was > 100 µM and the TGI (DMS 273 small cell lung) was > 100 µM. The TGI (KM20L2 colon) was > 100 µM, the TGI (LXFL 529 NSCLC) was > 100 µM and the TGI (NCI-H226 lung) was > 100 µM. The TGI (RXF-631 renal) was > 100 µM, the TGI (SNB-78 CNS) was > 100 µM and the TGI (XF 498 CNS) was > 100 µM.
In the case of `Oc1cn(-c2ccc(Cl)cc2)nc1-c1nnc(Nc2ccccc2)o1`, the TGI (NCI-H226 lung) is reported as 31.4 µM.
Work on `CCN(CC)c1ccc(/C=C/C2=NN(c3cccc(S(=O)(=O)O)c3)C3(C2)C(Cl)C(=O)N3c2nc3ccccc3s2)cc1` (stereo not drawn) yielded a TGI (NCI-H226 lung) of 34.2 µM.
For `COc1ccc(NC=O)c(C(O)CCNC(C)=O)c1` (stereo not drawn), the TGI (NCI-H226 lung) was > 100 µM.
In the case of `Cc1ccc2sc3cc(=O)cc(C)c-3nc2c1`, the TGI (DLD-1 colon) is reported as > 100 µM, the TGI (DMS 114 small cell lung) is reported as > 100 µM and the TGI (DMS 273 small cell lung) is reported as > 100 µM. The TGI (HOP-18 NSCLC) was > 100 µM, the TGI (KM20L2 colon) was > 100 µM and the TGI (LXFL 529 NSCLC) was > 100 µM. For the same compound, the TGI (M19-MEL melanoma) was 30.7 µM, the TGI (NCI-H226 lung) was > 100 µM and the TGI (RXF-631 renal) was > 100 µM. The TGI (SNB-78 CNS) was > 100 µM.
In the case of `COc1ccc(CSCc2cc(OC)c(OC)c(OC)c2)cc1`, the TGI (NCI-H226 lung) is reported as > 100 µM.
`NC(=S)N/N=C/c1cc(CN2CCOCC2)c(N)cn1` showed a TGI (NCI-H226 lung) of 45.8 µM.
With `CC(=O)NNC=N/C(C#N)=C(\N)C#N` the TGI (NCI-H226 lung) was > 100 µM.
`NN/C(=N\S(=O)(=O)c1cc(Cl)c(Oc2ccc([N+](=O)[O-])cc2Cl)c(Cl)c1)Nc1ccc(Cl)cc1` gave a TGI (NCI-H226 lung) of 33.4 µM.
`COc1cc(C2c3cccc4cccc(c34)C3CCC(=O)N32)cc(O)c1O` (stereo not drawn) was tested, and the TGI (NCI-H226 lung) was > 50 µM.
With `CN1CC=C(OP(=O)(NCc2ccccc2)N(CCCl)CCCl)CC1` (stereo not drawn) the TGI (NCI-H226 lung) was > 100 µM.
Compound `CSc1nc(C)cc(Nc2ccc(O)c(CN3CCCCC3)c2)n1` has a TGI (NCI-H226 lung) of 84.3 µM.
Compound `CC(C)=CCC/C(C)=C/Cc1cc(/C=C/c2cc(O)c(CC=C(C)C)c(O)c2)cc(O)c1O` has a TGI (NCI-H226 lung) of 23 µM.
In the case of `CCOC(=O)CCc1c(C(=O)OCC)[nH]c(/C=C2/NC(=O)C(C)=C2CC)c1C`, the TGI (NCI-H226 lung) is reported as 48.2 µM.
In the case of `O=C(O)CCC(=O)Nc1ccc2c(c1)S(=O)(=O)N(CC(=O)O)C2=O`, the TGI (NCI-H226 lung) is reported as > 100 µM.
`O=C(Nc1ccc(C(F)(F)F)cc1[N+](=O)[O-])C(=O)C(C(=O)c1ccc2ccccc2c1)C1OC(=O)c2ccccc21` (stereo not drawn) gave a TGI (DLD-1 colon) of 26.7 µM, a TGI (DMS 114 small cell lung) of 40.5 µM and a TGI (KM20L2 colon) of 38.7 µM. For the same compound, the TGI (LXFL 529 NSCLC) was 20.9 µM, the TGI (M19-MEL melanoma) was 42.7 µM and the TGI (NCI-H226 lung) was 3.29 µM. It also gave a TGI (SNB-78 CNS) of 35.4 µM.
`CCc1cc(Cc2cc(CC)c(NC(=O)C3=CC(=O)CC(c4ccc(OC)cc4)O3)c(CC)c2Cl)c(Cl)c(CC)c1NC(=O)C1=CC(=O)CC(c2ccc(OC)cc2)O1` (stereo not drawn) gave a TGI (DLD-1 colon) of 34.8 µM, a TGI (DMS 114 small cell lung) of 33.5 µM and a TGI (DMS 273 small cell lung) of 37.6 µM. For the same compound, the TGI (HOP-18 NSCLC) was 53.5 µM, the TGI (KM20L2 colon) was 63.4 µM and the TGI (LXFL 529 NSCLC) was 31.9 µM. For the same compound, the TGI (M19-MEL melanoma) was 40.2 µM, the TGI (NCI-H226 lung) was 47.5 µM and the TGI (RXF-631 renal) was > 100 µM. The TGI (SNB-78 CNS) was 85.1 µM.
`CC(=O)OC1[C@H]2c3cc4c(cc3CN3CCC(C[C@@H]1OC(C)=O)C23)OCO4` (stereo partly drawn) was tested, and the TGI (DLD-1 colon) was > 75 µM, the TGI (DMS 114 small cell lung) was > 75 µM and the TGI (DMS 273 small cell lung) was > 75 µM. The TGI (KM20L2 colon) was > 75 µM, the TGI (LXFL 529 NSCLC) was > 75 µM and the TGI (M19-MEL melanoma) was > 75 µM. The TGI (NCI-H226 lung) was 59.9 µM and the TGI (SNB-78 CNS) was > 75 µM.
With `Cn1c(=O)nc2n(CCO)c(-c3ccccc3)c(-c3ccccc3)nc-2c1=O` the TGI (NCI-H226 lung) was > 100 µM.
For `COc1ccc(/C=C2/C(=O)N(C(=O)c3ccc(Cl)cc3)N=C2C)cc1OC`, the TGI (DLD-1 colon) was > 100 µM, the TGI (DMS 114 small cell lung) was > 100 µM and the TGI (KM20L2 colon) was > 100 µM. For the same compound, the TGI (LXFL 529 NSCLC) was > 100 µM, the TGI (M19-MEL melanoma) was > 100 µM and the TGI (SNB-78 CNS) was > 100 µM. The TGI (XF 498 CNS) was > 100 µM.
